In patent US20260284011A1, “COMPOUNDS FOR RESTORING SUSCEPTIBILITY TO BETA-LACTAM ANTIBIOTICS” (UNIVERSITY OF NOTRE DAME DU LAC, priority 2023, published 2026):
Like-named read-outs stand apart in the source and are kept apart here.

Tests used:
Experiment in all cases: MIC determination and potentiation assay (microdilution broth)
Assay type in all cases: cell-based
[1] = tested on: H2138 (NRS271), MRSA, SCCmec IV, bla +; settings: Staphylococcus aureus
Experimental: (§1) MICs were determined by the microdilution broth method following the Clinical & Laboratory Standards Institute (CLSI) guidelines. […] Experiments were performed in triplicate in 96-well plates with 5×10^5 CFU·mL^−1 of bacteria. […] The MIC was the concentration for which bacterial growth was not observed.

[2] = tested on: HIP06297 (NRS17), MRSA, SCCmec II, bla +; settings: Staphylococcus aureus
Experimental: as §1

[3] = tested on: MN-082 (NRS701), MRSA, SCCmec II, bla +; settings: Staphylococcus aureus
Experimental: as §1

[4] = tested on: HFH 29568, MRSA, USA300 clone, SCCmec IV, bla +; settings: Staphylococcus aureus
Experimental: as §1

[5] = tested on: MSSA476 (NRS72), MSSA, bla +; settings: Staphylococcus aureus
Experimental: as §1

[6] = tested on: NY-315 (NRS715), MRSA, SCCmec II, bla +; settings: Staphylococcus aureus
Experimental: as §1

[7] = tested on: HIP5836 (NRS4), MRSA/VISA, SCCmec II, bla +; settings: Staphylococcus aureus, agent alone
Experimental: as §1

[8] = tested on: FPR3757, MRSA, USA300 clone, SCCmec IV, bla +; settings: Staphylococcus aureus
Experimental: as §1

[9] = tested on: N315 (NRS70), MRSA, SCCmec II, bla +; settings: Staphylococcus aureus
Experimental: as §1

[10] = tested on: ATCC 33591, MRSA, SCCmec III, bla +; settings: Staphylococcus aureus
Experimental: as §1

[11] = tested on: TN-124 (NRS735), MRSA, SCCmec II, bla +; settings: Staphylococcus aureus
Experimental: as §1

[12] = tested on: HI049, MRSA, USA300 clone, SCCmec IV, bla +; settings: Staphylococcus aureus, agent alone
Experimental: as §1

[13] = tested on: CA-127 (NRS643), MRSA, SCCmec IV, bla +; settings: Staphylococcus aureus
Experimental: as §1

[14] = tested on: HFH 30495, MRSA, SCCmec II, bla +; settings: Staphylococcus aureus
Experimental: as §1

[15] = tested on: HT 20020320 (NRS245), MRSA, SCCmec IV, bla +; settings: Staphylococcus aureus
Experimental: as §1

[16] = tested on: CT-19 (NRS676), MRSA, SCCmec IV, bla +; settings: Staphylococcus aureus
Experimental: as §1

NRS128, MSSA, bla + = settings: Staphylococcus aureus
Experimental: as §1

[17] = tested on: MW2 (NRS123), MRSA, SCCmec IV, bla +; settings: Staphylococcus aureus
Experimental: as §1

[18] = tested on: CO-23 (NRS661), MRSA, SCCmec II, bla +; settings: Staphylococcus aureus
Experimental: as §1

[19] = tested on: LinR#12 (NRS119), MRSA, SCCmec IV, bla +; settings: Staphylococcus aureus
Experimental: as §1

[20] = tested on: M1712 (NRS127), MRSA, SCCmec II, bla +; settings: Staphylococcus aureus
Experimental: as §1

[21] = tested on: 880, MRSA, SCCmec IV, bla +
Experimental: as §1

[22] = tested on: HIP 07930 (NRS22), MRSA/VISA, SCCmec II, bla +; settings: Staphylococcus aureus
Experimental: as §1

[23] = tested on: AIS 1000505 (VRS10), MRSA, vancomycin-resistant, SCCmec II, bla +; settings: Staphylococcus aureus
Experimental: as §1

[24] = tested on: CA-347 (NRS648), MRSA, SCCmec II, bla +; settings: Staphylococcus aureus
Experimental: as §1

[25] = tested on: CA-263 (NRS647), MRSA, SCCmec IV, bla +; settings: Staphylococcus aureus
Experimental: as §1

[26] = tested on: CO-34 (NRS662), MRSA, SCCmec IV, bla +; settings: Staphylococcus aureus
Experimental: as §1

[27] = H2138 (NRS271), agent alone, read-out: MIC
[28] = HIP06297 (NRS17), agent alone, read-out: MIC
[29] = MN-082 (NRS701), agent alone, read-out: MIC
[30] = HFH 29568, agent alone, read-out: MIC
[31] = MSSA476 (NRS72), agent alone, read-out: MIC
[32] = NY-315 (NRS715), agent alone, read-out: MIC
[33] = FPR3757, agent alone, read-out: MIC
[34] = N315 (NRS70), agent alone, read-out: MIC
[35] = ATCC 33591, agent alone, read-out: MIC
[36] = CA-127 (NRS643), agent alone, read-out: MIC
[37] = HFH 30495, agent alone, read-out: MIC
[38] = HT 20020320 (NRS245), agent alone, read-out: MIC
[39] = CT-19 (NRS676), agent alone, read-out: MIC
[40] = NRS128, agent alone, read-out: MIC
[41] = MW2 (NRS123), agent alone, read-out: MIC
[42] = CO-23 (NRS661), agent alone, read-out: MIC
[43] = LinR#12 (NRS119), agent alone, read-out: MIC
[44] = M1712 (NRS127), agent alone, read-out: MIC
[45] = Staphylococcus aureus, 880, agent alone, read-out: MIC
[46] = HIP 07930 (NRS22), agent alone, read-out: MIC
[47] = AIS 1000505 (VRS10), agent alone, read-out: MIC
[48] = CA-347 (NRS648), agent alone, read-out: MIC
[49] = CA-263 (NRS647), agent alone, read-out: MIC
[50] = CO-34 (NRS662), agent alone, read-out: MIC

N#Cc1ccc2nc(SCB(O)O)n(Cc3ccc(C(F)(F)F)cc3C(F)(F)F)c2c1 [Compound 4, (((1-(2,4-bis(trifluoro-methyl)benzyl)-6-cyano-1H-benzo[d]imidazol-2-yl)thio)methyl)boronic acid]
MIC [1, 27]: 16 µg/mL | MIC [2, 28]: 32 µg/mL | MIC [3, 29]: 16 µg/mL | MIC [4, 30]: 16 µg/mL | MIC [5, 31]: 32 µg/mL | MIC [6, 32]: 16 µg/mL | MIC [7]: 16 µg/mL | MIC [8, 33]: 16 µg/mL | MIC [9, 34]: 16 µg/mL | MIC [10, 35]: 16 µg/mL | MIC [11]: 16 µg/mL | MIC [12]: 16 µg/mL | MIC [13, 36]: 16 µg/mL | MIC [14, 37]: 16 µg/mL | MIC [15, 38]: 16 µg/mL | MIC [16, 39]: 16 µg/mL | MIC (NRS128, MSSA, bla +; [40]): 16 µg/mL | MIC [17, 41]: 16 µg/mL | MIC [18, 42]: 32 µg/mL | MIC [19, 43]: 16 µg/mL | MIC [20, 44]: 16 µg/mL | MIC [21, 45]: 16 µg/mL | MIC [22, 46]: 16 µg/mL | MIC [23, 47]: 16 µg/mL | MIC [24, 48]: 16 µg/mL | MIC [25, 49]: 16 µg/mL | MIC [26, 50]: 16 µg/mL

CCO/N=C(\C(=O)N[C@@H]1C(=O)N2C(C(=O)[O-])=C(Sc3nc(-c4cc[n+](C)cc4)cs3)CS[C@H]12)c1nsc(N)n1 [CPT, ceftaroline]
MIC [1, 27]: 1 µg/mL | MIC [2, 28]: 1 µg/mL | MIC [3, 29]: 2 µg/mL | MIC [4, 30]: 1 µg/mL | MIC [5, 31]: 0.13 µg/mL | MIC [6, 32]: 1 µg/mL | MIC [7]: 0.25 µg/mL | MIC [8, 33]: 0.5 µg/mL | MIC [9, 34]: 1 µg/mL | MIC [10, 35]: 1 µg/mL | MIC [11]: 1 µg/mL | MIC [12]: 1 µg/mL | MIC [13, 36]: 0.5 µg/mL | MIC [14, 37]: 1 µg/mL | MIC [15, 38]: 0.5 µg/mL | MIC [16, 39]: 1 µg/mL | MIC (NRS128, MSSA, bla +; [40]): 0.06 µg/mL | MIC [17, 41]: 1 µg/mL | MIC [18, 42]: 1 µg/mL | MIC [19, 43]: 1 µg/mL | MIC [20, 44]: 1 µg/mL | MIC [21, 45]: 1 µg/mL | MIC [22, 46]: 0.25 µg/mL | MIC [23, 47]: 1 µg/mL | MIC [24, 48]: 1 µg/mL | MIC [25, 49]: 0.5 µg/mL | MIC [26, 50]: 1 µg/mL

C[C@@H](O)[C@H]1C(=O)N2C(C(=O)O)=C(S[C@@H]3CN[C@H](C(=O)N(C)C)C3)[C@H](C)[C@H]12 [MEM, meropenem]
MIC [1, 27]: 16 µg/mL | MIC [2, 28]: 4 µg/mL | MIC [3, 29]: 32 µg/mL | MIC [4, 30]: 16 µg/mL | MIC [5, 31]: 0.13 µg/mL | MIC [6, 32]: 32 µg/mL | MIC [7]: 8 µg/mL | MIC [8, 33]: 4 µg/mL | MIC [9, 34]: 16 µg/mL | MIC [10, 35]: 16 µg/mL | MIC [11]: 8 µg/mL | MIC [12]: 8 µg/mL | MIC [13, 36]: 4 µg/mL | MIC [14, 37]: 32 µg/mL | MIC [15, 38]: 8 µg/mL | MIC [16, 39]: 4 µg/mL | MIC (NRS128, MSSA, bla +; [40]): 0.13 µg/mL | MIC [17, 41]: 4 µg/mL | MIC [18, 42]: 32 µg/mL | MIC [19, 43]: 32 µg/mL | MIC [20, 44]: 16 µg/mL | MIC [21, 45]: 16 µg/mL | MIC [22, 46]: 8 µg/mL | MIC [23, 47]: 32 µg/mL | MIC [24, 48]: 16 µg/mL | MIC [25, 49]: 4 µg/mL | MIC [26, 50]: 8 µg/mL

Cc1onc(-c2ccccc2)c1C(=O)N[C@@H]1C(=O)N2[C@@H]1SC(C)(C)[C@@H]2C(=O)O [OXA, oxacillin]
MIC [1]: 256 µg/mL | MIC [2]: 2 µg/mL | MIC [3]: 512 µg/mL | MIC [4]: 64 µg/mL | MIC [5]: 0.5 µg/mL | MIC [6]: 256 µg/mL | MIC [8]: 64 µg/mL | MIC [10]: 512 µg/mL | MIC [11]: 256 µg/mL | MIC [13]: 64 µg/mL | MIC [14]: 512 µg/mL | MIC [15]: 64 µg/mL | MIC [16]: 256 µg/mL | MIC (NRS128, MSSA, bla +): 0.5 µg/mL | MIC [17]: 64 µg/mL | MIC [18]: 256 µg/mL | MIC [19]: 512 µg/mL | MIC [20]: 256 µg/mL | MIC ([21]; Staphylococcus aureus): 256 µg/mL | MIC [22]: 64 µg/mL | MIC [23]: 256 µg/mL | MIC [24]: 256 µg/mL | MIC [25]: 64 µg/mL | MIC [26]: 64 µg/mL

CO[C@@]1(NC(=O)Cc2cccs2)C(=O)N2C(C(=O)O)=C(COC(N)=O)CS[C@@H]21 [FOX, cefoxitin]
MIC [1]: 128 µg/mL | MIC [2, 28]: 256 µg/mL | MIC [3, 29]: 256 µg/mL | MIC [4, 30]: 32 µg/mL | MIC [5, 31]: 4 µg/mL | MIC [6, 32]: 256 µg/mL | MIC [7]: 64 µg/mL | MIC [8, 33]: 64 µg/mL | MIC [9]: 128 µg/mL | MIC [10]: 128 µg/mL | MIC [11]: 128 µg/mL | MIC [12]: 64 µg/mL | MIC [13]: 128 µg/mL | MIC [14, 37]: 256 µg/mL | MIC [15]: 128 µg/mL | MIC [16, 39]: 64 µg/mL | MIC (NRS128, MSSA, bla +): 4 µg/mL | MIC [17, 41]: 64 µg/mL | MIC [18]: 128 µg/mL | MIC [19, 43]: 256 µg/mL | MIC [20]: 128 µg/mL | MIC [21, 45]: 64 µg/mL | MIC [22]: 128 µg/mL | MIC [23]: 128 µg/mL | MIC [24]: 128 µg/mL | MIC [25, 49]: 32 µg/mL | MIC [26, 50]: 64 µg/mL
